The target of assay [1] is T1, Human PD-L1/PD-1 (Homo sapiens, UniProt Q9NZQ7).
T1 construct: made in house; host or cells: HEK293T
As to the kind of experiment: HTRF PD-1-Ig/PD-L1-His binding assay (human PD-L1). As to conditions: cluster symbol; read-out: HTRF IC50 cluster. The essentials: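 HTRF read-out: Eu cryptate anti-Ig mAb 1 nM final, APC anti-His mAb 20 nM final, added over the binding reaction. Proteins were PD-1-Ig and PD-L1-His ectodomain fusions. Buffer was dPBS, 0.1% BSA, 0.05% Tween-20.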
A general note: TR-FRET usually uses a lanthanide donor and a delayed reading to cut background.

For assay [2], the target named is T2, LK35.2-hPD-L1 cells / PE-labeled PD-1-Ig (Homo sapiens, UniProt Q9NZQ7).
T2 construct: expressed in transfected cells; host or cells: LK35.2 mouse B cell line
The assay can be described thus: LK35.2-hPD-L1 cell binding high-content screening assay. Format: cell-based. As to conditions: cluster symbol, read-out: CBA IC50 cluster. The essentials:
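Fluorescent PD-1-Ig binding to PD-L1-expressing LK35.2 cells, imaged after washing. Conditions: 1 nM PE-PD-1-Ig, 37 °C, 1 h, RPMI with 10% fetal calf serum.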

Where [3] appears, read: cell binding assay, cell line not given.
[4] abbreviates: cell line of CBA not given (LK35.2-hPD-L1 or 293T-hPD-L1).

pIC50: −log10 of the molar value. Like-named read-outs stand apart in the source and are kept apart here. Starred links: 1 amine or outer side, 2 acyl side, 3 side chain; linkers in the order of their positions; H or OH if unused. Positions of bridges follow the written chain, without caps; N, C: chain ends. Non-standard residues stand in square brackets, D forms with d. Residues, ends and D or L forms follow the SMILES beside them. ξ: configuration not given here. X3 = O=C([C@@H]1C[C@@H](Cc2ccc(F)cc2)CN1[*:1])[*:2]; Phe(3,4,5-F3) = N[C@@H](Cc1cc(F)c(F)c(F)c1)C(=O)O; Bip(2'-Me) = Cc1ccccc1-c1ccc(C[C@H](N)C(=O)O)cc1; Phe(4-CH2NH2) = NCc1ccc(C[C@H](N)C(=O)O)cc1; Phe(3-F) = N[C@@H](Cc1cccc(F)c1)C(=O)O; Pro(4R-NH2) = N[C@H]1CN[C@H](C(=O)O)C1; d(cisHyp) = O=C(O)[C@H]1C[C@@H](O)CN1; Bta = N[C@@H](Cc1csc2ccccc12)C(=O)O; Hyp = O=C(O)[C@@H]1C[C@@H](O)CN1; NMeF = CN[C@@H](Cc1ccccc1)C(=O)O; 4Pal = N[C@@H](Cc1ccncc1)C(=O)O; NMeNle = CCCC[C@H](NC)C(=O)O; NMeM = CN[C@@H](CCSC)C(=O)O; Pip = O=C(O)[C@@H]1CCCCN1; ξR = N=C(N)NCCCC(N)C(=O)O; NMeA = CN[C@@H](C)C(=O)O; Orn = NCCC[C@H](N)C(=O)O; Dab = NCC[C@H](N)C(=O)O; dAze = O=C(O)[C@H]1CCN1; Dap = NC[C@H](N)C(=O)O; ξP = O=C(O)C1CCCN1; ξC = NC(CS)C(=O)O; ξS = NC(CO)C(=O)O; Sar = CNCC(=O)O

T2 sequence (Q9NZQ7 19-290): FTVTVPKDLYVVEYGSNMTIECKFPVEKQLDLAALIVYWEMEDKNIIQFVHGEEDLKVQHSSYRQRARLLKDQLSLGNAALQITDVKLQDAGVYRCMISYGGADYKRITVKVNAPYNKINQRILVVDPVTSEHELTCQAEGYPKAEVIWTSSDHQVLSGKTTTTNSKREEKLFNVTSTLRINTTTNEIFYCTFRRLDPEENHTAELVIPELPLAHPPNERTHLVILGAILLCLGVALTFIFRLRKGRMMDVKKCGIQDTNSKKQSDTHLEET
T1 sequence (Q9NZQ7 with tags, fused parts or gaps): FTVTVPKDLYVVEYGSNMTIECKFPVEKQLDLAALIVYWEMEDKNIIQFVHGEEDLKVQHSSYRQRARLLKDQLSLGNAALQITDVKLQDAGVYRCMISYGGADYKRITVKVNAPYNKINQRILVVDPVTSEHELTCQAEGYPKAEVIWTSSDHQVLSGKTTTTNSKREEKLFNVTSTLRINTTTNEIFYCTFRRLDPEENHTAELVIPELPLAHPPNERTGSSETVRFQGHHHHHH

In the case of `CCCC[C@H]1C(=O)N(C)[C@@H](CCCC)C(=O)N[C@@H](CCCNC(=N)N)C(=O)N[C@H](C(=O)NCC(N)=O)CSCC(=O)N[C@@H](Cc2ccc(O)cc2)C(=O)N(C)[C@@H](C)C(=O)N[C@@H](CCCCN)C(=O)N2CCC[C@H]2C(=O)N[C@@H](Cc2c[nH]cn2)C(=O)N[C@@H](CC(=O)O)C(=O)N2C[C@H](O)C[C@H]2C(=O)N[C@@H](Cc2c[nH]c3ccccc23)C(=O)N[C@@H](CO)C(=O)N[C@@H](Cc2c[nH]c3ccccc23)C(=O)N1C` [Example 5102] ({CH2CO}-Y[NMeA]KPHD[Hyp]WSW[NMeNle][NMeNle]RCG-NH2; thioether N-14), the figures for the pIC50 in assay [1] and in assay [2] (setting [3]) were 7.52 to 8.17 and 7.14 to 8.32, respectively.

Turning to `CCCC[C@H]1C(=O)N(C)[C@@H](CCCC)C(=O)NC(CCCNC(=N)N)C(=O)NC(C(=O)NCC(N)=O)CSCC(=O)N[C@@H](Cc2ccccc2)C(=O)N(C)[C@@H](C)C(=O)N[C@@H](CC(N)=O)C(=O)N2CCCC2C(=O)N[C@@H](Cc2cnc[nH]2)C(=O)N[C@@H](CC(C)C)C(=O)N(C)CC(=O)N[C@@H](Cc2c[nH]c3ccccc23)C(=O)NC(CO)C(=O)N[C@@H](Cc2ccc(-c3ccccc3C)cc2)C(=O)N1C` (some centres unmarked) [Example 1030] ({CH2CO}-F[NMeA]N[ξP]HL[Sar]W[ξS][Bip(2'-Me)][NMeNle][NMeNle][ξR][ξC]G-NH2; thioether N-14), the pIC50 in assay [1] was < 7.52; in assay [2] (setting [4]), < 7.13.

With `CCCC[C@H]1C(=O)N(C)[C@@H](CCCC)C(=O)N[C@@H](CCCNC(=N)N)C(=O)NC(C(=O)NCC(N)=O)CSCC(=O)N[C@@H](Cc2ccc(O)cc2)C(=O)N(C)[C@@H](C)C(=O)N[C@@H](CC(N)=O)C(=O)N2CCC[C@H]2C(=O)N[C@@H](Cc2cnc[nH]2)C(=O)N[C@@H](CC(N)=O)C(=O)N2CCC[C@H]2C(=O)N[C@@H](Cc2c[nH]c3ccccc23)C(=O)N[C@@H](CO)C(=O)N[C@@H](Cc2c[nH]c3ccccc23)C(=O)N1C` (some centres unmarked) [Example 9063] ({CH2CO}-Y[NMeA]NPHNPWSW[NMeNle][NMeNle]R[ξC]G-NH2; thioether N-14), the values for the pIC50 in assay [1] and in assay [2] (setting [3]) were 8.17 to 9.41 and 8.33 to 9.80, respectively.

Turning to `CCCC[C@H]1C(=O)N(C)[C@@H](CCCC)C(=O)N[C@@H](CCCNC(=N)N)C(=O)N[C@H](C(=O)NCC(N)=O)CSCC(=O)N[C@@H](Cc2ccncc2)C(=O)N(C)[C@@H](C)C(=O)N[C@@H](CC(N)=O)C(=O)N2CCC[C@H]2C(=O)N[C@@H](Cc2cnc[nH]2)C(=O)N[C@@H](CC(C)C)C(=O)N2C[C@H](O)C[C@H]2C(=O)N[C@@H](Cc2c[nH]c3ccccc23)C(=O)N[C@@H](CO)C(=O)N[C@@H](Cc2c[nH]c3ccccc23)C(=O)N1C` [Example 7029] ({CH2CO}-[4Pal][NMeA]NPHL[Hyp]WSW[NMeNle][NMeNle]RCG-NH2; thioether N-14), the negative-log IC50 (pIC50) in assay [1] is < 7.52; in assay [2] (setting [3]), 7.14 to 8.32.

Regarding `CCCC[C@H]1C(=O)N(C)CC(=O)N[C@@H](CC(=O)O)C(=O)N[C@@H](C(C)C)C(=O)N(C)[C@@H](Cc2ccccc2)C(=O)N[C@@H](Cc2ccc(CN)cc2)C(=O)N(C)CC(=O)N[C@@H](Cc2csc3ccccc23)C(=O)N[C@@H](Cc2ccc(O)cc2)C(=O)N[C@@H](CC(C)C)C(=O)N[C@H](C(=O)NCC(N)=O)CSCC(=O)N[C@@H](Cc2cccc(F)c2)C(=O)N(C)[C@@H](Cc2ccccc2)C(=O)N1C` [Example 3121] ({CH2CO}-[Phe(3-F)][NMeF][NMeNle][Sar]DV[NMeF][Phe(4-CH2NH2)][Sar][Bta]YLCG-NH2; thioether N-13), the pIC50 was 7.52 to 8.17 in assay [1] and 8.33 to 9.80 in assay [2] (setting [4]).

As to `CCCC[C@H]1C(=O)N(C)[C@@H](CCSC)C(=O)N[C@@H](CCCNC(=N)N)C(=O)NC(C(=O)NCC(N)=O)CSCC(=O)N[C@@H](Cc2ccc(O)cc2)C(=O)N(C)[C@@H](C)C(=O)N[C@@H](CC(N)=O)C(=O)N2CCC[C@H]2C(=O)N[C@@H](CN)C(=O)N[C@@H](CC(C)C)C(=O)N2C[C@H](O)C[C@H]2C(=O)N[C@@H](Cc2c[nH]c3ccccc23)C(=O)N[C@@H](CO)C(=O)N[C@@H](Cc2csc3ccccc23)C(=O)N1C` (some centres unmarked) [Example 9084] ({CH2CO}-Y[NMeA]NP[Dap]L[Hyp]WS[Bta][NMeNle][NMeM]R[ξC]G-NH2; thioether N-14), the pIC50 in assay [1] was 8.17 to 9.41; in assay [2] (setting [3]) it was 8.33 to 9.80.

For the compound `CCCC[C@H]1C(=O)N2C[C@H](O)C[C@@H]2C(=O)N2C[C@H](N)C[C@H]2C(=O)N[C@@H](C(C)C)C(=O)N(C)[C@@H](Cc2ccccc2)C(=O)N[C@@H](Cc2ccc(O)cc2)C(=O)N2CC[C@@H]2C(=O)N[C@@H](Cc2c[nH]c3ccccc23)C(=O)N[C@@H](Cc2ccc(O)cc2)C(=O)N[C@@H](CC(C)C)C(=O)N[C@H](C(=O)NCC(N)=O)CSCC(=O)N[C@@H](Cc2cc(F)c(F)c(F)c2)C(=O)N(C)[C@@H](Cc2ccccc2)C(=O)N1C` [Example 3195] ({CH2CO}-[Phe(3,4,5-F3)][NMeF][NMeNle][d(cisHyp)][Pro(4R-NH2)]V[NMeF]Y[dAze]WYLCG-NH2; thioether N-13), the results for the pIC50 in assay [1] and in assay [2] (setting [4]) were 8.17 to 9.41 and 8.33 to 9.80, respectively.

Turning to `CCCC[C@H]1C(=O)N(C)[C@@H](CCCC)C(=O)N[C@@H](C)C(=O)N[C@H](C(N)=O)CSCC(=O)N[C@@H](Cc2ccc(O)cc2)C(=O)N(C)[C@@H](C)C(=O)N[C@@H](CC(=O)O)C(=O)N2CCC[C@H]2C(=O)N[C@@H](Cc2cnc[nH]2)C(=O)N[C@@H](CCCN)C(=O)N2C[C@H](O)C[C@H]2C(=O)N[C@@H](Cc2c[nH]c3ccccc23)C(=O)N[C@@H](CO)C(=O)N[C@@H](Cc2c[nH]c3ccccc23)C(=O)N1C` [Example 1231] ({CH2CO}-Y[NMeA]DPH[Orn][Hyp]WSW[NMeNle][NMeNle]AC-NH2; thioether N-14), the pIC50 is 8.17 to 9.41 in assay [1] and 8.33 to 9.80 in assay [2] (setting [4]).

As to `CCCC[C@H]1C(=O)N(C)[C@@H](CCCC)C(=O)N[C@@H](C)C(=O)N[C@H](C(=O)NCC(N)=O)CSCC(=O)N[C@@H](Cc2ccc(O)cc2)C(=O)N(C)[C@@H](C)C(=O)N[C@@H](CC(=O)O)C(=O)N2CCC[C@H]2C(=O)N[C@@H](Cc2c[nH]cn2)C(=O)N[C@@H](CCC(=O)O)C(=O)N2C[C@H](Cc3ccc(F)cc3)C[C@H]2C(=O)N[C@@H](Cc2c[nH]c3ccccc23)C(=O)N[C@@H](CCN)C(=O)N[C@@H](Cc2c[nH]c3ccccc23)C(=O)N1C` [Example 13012] ({CH2CO}-Y[NMeA]DPHE[X3]W[Dab]W[NMeNle][NMeNle]ACG-NH2; thioether N-14), the pIC50 was 8.17 to 9.41 in assay [1] and 8.33 to 9.80 in assay [2] (setting [3]).

In the case of `CCCC[C@H]1C(=O)N(C)[C@@H](CCCC)C(=O)N[C@@H](CCCNC(=N)N)C(=O)N[C@H](C(=O)NCC(N)=O)CSCC(=O)N[C@@H](Cc2ccc(O)cc2)C(=O)N2CCCC[C@H]2C(=O)N[C@@H](CC(=O)O)C(=O)N2CCC[C@H]2C(=O)N[C@@H](CN)C(=O)N[C@@H](CC(C)C)C(=O)N2C[C@H](O)C[C@H]2C(=O)N[C@@H](Cc2c[nH]c3ccccc23)C(=O)N[C@@H](CO)C(=O)N[C@@H](Cc2c[nH]c3ccccc23)C(=O)N1C` [Example 1233] ({CH2CO}-Y[Pip]DP[Dap]L[Hyp]WSW[NMeNle][NMeNle]RCG-NH2; thioether N-14), the pIC50 in assay [1] was 7.52 to 8.17; in assay [2] (setting [4]) it was 8.33 to 9.80.

The pIC50 is the IC50 on a negative log10 scale, so that one unit is a factor of ten.

The record behind these values is US9850283B2, “Macrocyclic inhibitors of the PD-1/PD-L1 and CD80(B7-1)/PD-L1 protein/protein interactions” (BRISTOL-MYERS SQUIBB COMPANY, priority 2013, dated 2017).
